These are literature values, as cited in patent US4332794A, “6"-Deoxydibekacin, 4",6"-dideoxydibekacin and 1-N-aminoacyl derivatives thereof, and the production of these new compounds” (Zaidan Hojin Biseibutsu Kagaku Kenkyu Kai, priority 1979, dated 1982).

The conditions of data set [1]: Japanese patent application No. 54733/79; cited from earlier work.
The next data set has as its system bacteria. Particulars: Japanese patent application No. 54733/79; cited from earlier work.
Data set [2] has as its system dibekacin-resistant bacteria. As to conditions: prior art; cited from earlier work.

Take `C[C@@H]1C[C@H](N)[C@@H](O)[C@@H](O[C@@H]2[C@@H](O)[C@H](O[C@H]3O[C@H](CN)[C@@H](O)[C@H](O)[C@H]3O)[C@@H](N)C[C@H]2NC(=O)[C@@H](O)CCN)O1` [4",6"-dideoxyamikacin, 1-N-(L-4-amino-2-hydroxybutyryl)-4",6"-dideoxykanamycin A]: in data set [1], the oto-toxicity result is recorded as “low oto-toxicity”. Besides, in the data set on bacteria, the “antibacterial activity compared to amikacin” value is on record as “antibacterial activity as high as that of amikacin”.
`NCC[C@H](O)C(=O)N[C@@H]1C[C@H](N)[C@@H](O[C@H]2O[C@H](CN)CC[C@H]2N)[C@H](O)[C@H]1O[C@H]1O[C@H](CO)[C@@H](O)[C@H](N)[C@H]1O` [1-N-(L-4-amino-2-hydroxybutyryl)-3',4'-dideoxykanamycin B]: the antibacterial activity entry in data set [2] was “effective against dibekacin-resistant bacteria”.
Turning to `C[C@H]1O[C@H](O[C@@H]2[C@@H](O)[C@H](O[C@H]3O[C@H](CN)[C@@H](O)[C@H](O)[C@H]3O)[C@@H](N)C[C@H]2NC(=O)[C@@H](O)CCN)[C@H](O)[C@@H](N)[C@@H]1O` [6"-deoxyamikacin, 1-N-(L-4-amino-2-hydroxybutyryl)-6"-deoxykanamycin A], the oto-toxicity entry in data set [1] is recorded as “low oto-toxicity”. In addition, in the data set with bacteria, the “antibacterial activity compared to amikacin” value is reported as “antibacterial activity as high as that of amikacin”.
